Assay results from patent US4244952A, “Imidazo[2',1':2,3]-thiazolo[5,4-c]pyridines and composition thereof for treating immune diseases” (Yoshitomi Pharmaceutical Industries, Ltd., priority 1978, dated 1981).

Experiments:
[1] = tested on: rosette forming cells (RFC) in the spleen and thymus; test: Activity for potentiating immune response in dd-mice (RFC number after SRBC sensitization in CY-treated mice); assay type: in vivo, male dd-strain mice
Procedure: (I) Activity for potentiating immune response in dd-mice
As test animals, male dd-strain mice (8 week old) were used by dividing them into groups of 6 members. Each mouse was orally administered once a day with cyclophosphamide (CY) at a dose of 20 mg/kg 1 and 0 day before the sensitization. The sensitization (day 0) was made by the intravenous injection of the antigen; 1×10^8 sheep red blood cells (SRBC). Each mouse was orally administered with test compounds (day 0-4). Five days after the sensitization, the number of rosette forming cells (RFC) in the spleen and thymus was measured in a usual manner.

[2] = tested on: rosette forming cells (RFC) in the spleen and thymus; test: Activity for suppressing immune response in BALB/c mice (RFC number after SRBC sensitization); assay type: in vivo, female BALB/c-strain mice; settings: 30 mg/kg p.o.; for RFC/organ Spleen: day 0 and 1; for RFC/organ Thymus: day 0 and 1, ** P < 0.01 vs. control
Procedure: (II) Activity for suppressing immune response in BALB/c mice
As test animals, female BALB/c-strain mice (6 week old) were used by dividing them into groups of 6 members.
The sensitization (day 0) was made by the intraperitoneal injection the antigen; 5×10^8 sheep red blood cells (SRBC). Each mouse was orally administered with test compounds at day 0 and 1. Four days after the sensitization, the number of rosette forming cells (RFC) in the spleen and thymus was measured in a usual manner.

Acute toxicity = settings: mouse, in vivo, male dd-strain mice
Procedure: Acute toxicity of the test compound was determined using male dd-strain mice (8 week old) as test animals. The test compound was administered orally or intraperitoneally.

[3] = CY alone, 20 mg/kg p.o. once a day, 1 and 0 day before sensitization, dd-mice
[4] = CY (20 mg/kg) + test compound 1 mg/kg p.o., day 0-4, * P < 0.05 vs. CY treatment
[5] = CY (20 mg/kg) + test compound 1 mg/kg p.o., day 0-4, ** P < 0.01 vs. CY treatment
[6] = CY (20 mg/kg) + test compound 10 mg/kg p.o., day 0-4
[7] = CY (20 mg/kg) + test compound 10 mg/kg p.o., day 0-4, * P < 0.05 vs. CY treatment

SMILES | RFC/organ Spleen [1, 3] | RFC/organ Thymus [1, 3] | number of RFC per spleen and thymus ([1]; group treated with CY alone) | RFC/organ Thymus [1, 4] | RFC/organ Spleen [1, 5] | RFC/organ Spleen [1, 6] | RFC/organ Thymus [1, 7] | RFC/organ Spleen [2] | RFC/organ Thymus [2] | LD50 (Acute toxicity; ip) [mg/kg] | LD50 (Acute toxicity; po) [mg/kg]
O=P1(N(CCCl)CCCl)NCCCO1 (stereo not shown) [CY, cyclophosphamide, reference compound] | 101 × 10^4 | 0.44 × 10^4 | reduced significantly |  |  |  |  |  |  |  | 
CCOC(=O)N1CCc2c(sc3nc(-c4ccc([N+](=O)[O-])cc4)cn23)C1 [Compound A, 7-ethoxycarbonyl-2-(4-nitrophenyl)-5,6,7,8-tetrahydroimidazo[2',1':2,3]thiazolo[5,4-c]pyridine] |  |  |  | 3.33 × 10^4 | 169 × 10^4 | 220 × 10^4 | 3.11 × 10^4 | 174 × 10^4 | 0.00 × 10^4 | 600 | 1000
O=[N+]([O-])c1ccc(CN2CCc3c(sc4nccn34)C2)cc1 [Compound B, 7-(4-nitrobenzyl)-5,6,7,8-tetrahydroimidazo[2',1':2,3]thiazolo-[5,4-c]pyridine] |  |  |  | 2.00 × 10^4 | 291 × 10^4 | 135 × 10^4 | 1.56 × 10^4 | 104 × 10^4 | 0.14 × 10^4 | 600 to 1000 | 600
